Assay results reported in patent US20140155376A1, “PYRROLOPYRAZINE KINASE INHIBITORS” (Hoffmann-La Roche Inc., priority 2010, published 2014).

Target: T1, JAK3 (recombinant human kinase domain; h-jak3(810-1124)) (Homo sapiens, UniProt P52333)
T1 construct: h-jak3(810- 1124)-sf9-c; made in house; host or cells: Sf9 insect cells
Assay: Determination of IC50 of Janus Kinase (JAK) inhibition: JAK3, radioactive end-point assay with 33P-ATP
Type: biochemical
Conditions: JAK3 kinase domain; ATP 1.5 uM, peptide 50 uM, 20 minutes, room temperature, 10% DMSO; read-out: Ic50 h-jak3(810-1124)-sf9-c:no additive

T1 sequence (P52333 810-1124): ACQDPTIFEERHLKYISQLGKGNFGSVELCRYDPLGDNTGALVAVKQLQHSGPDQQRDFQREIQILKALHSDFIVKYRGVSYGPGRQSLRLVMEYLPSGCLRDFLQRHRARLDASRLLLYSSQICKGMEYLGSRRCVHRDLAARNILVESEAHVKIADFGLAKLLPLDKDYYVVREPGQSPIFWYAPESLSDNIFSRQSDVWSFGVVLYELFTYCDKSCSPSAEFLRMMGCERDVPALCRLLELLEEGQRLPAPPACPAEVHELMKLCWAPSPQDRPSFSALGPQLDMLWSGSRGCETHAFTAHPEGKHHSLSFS

`N#CCCNC(=O)c1c[nH]c2ncc(C3CC3)nc12` [Example I-13, 2-Cyclopropyl-5H-pyrrolo[2,3-b]pyrazine-7-carboxylic acid (2-cyano-ethyl)-amide] gave an IC50 of 436 nM.

`C[C@@H](NC(=O)c1c[nH]c2ncc(C3CC3)nc12)C(C)(C)C` [Example I-62, 2-Cyclopropyl-5H-pyrrolo[2,3-b]pyrazine-7-carboxylic acid ((R)-1,2,2-trimethyl-propyl)-amide] showed an IC50 of 7.46 nM.

With `C[C@@H](NC(=O)c1c[nH]c2ncc(C3CC3)nc12)c1ccccc1` [Example I-66, 2-Cyclopropyl-5H-pyrrolo[2,3-b]pyrazine-7-carboxylic acid ((R)-1-phenyl-ethyl)-amide] the IC50 was 50 nM.

For `C[C@H](NC(=O)c1c[nH]c2ncc(C3=CCCC3)nc12)C(C)(C)O` [Example I-2, 2-Cyclopent-1-enyl-5H-pyrrolo[2,3-b]pyrazine-7-carboxylic acid ((S)-2-hydroxy-1,2-dimethyl-propyl)-amide], the IC50 was 5.23 nM.

`C[C@H](CO)NC(=O)c1ccc(-c2cnc3[nH]cc(C(=O)N[C@@H](C)C(C)(C)C)c3n2)s1` [Example I-169, 2-[5-((R)-2-Hydroxy-1-methyl-ethylcarbamoyl)-thiophen-2-yl]-5H-pyrrolo[2,3-b]pyrazine-7-carboxylic acid ((S)-1,2,2-trimethyl-propyl)-amide] showed an IC50 of 0.29 nM.

In the case of `CC(C)NC(=O)c1c[nH]c2ncc(Oc3ccc4c(c3)[C@H](O)CC4)nc12` [Example I-303, 2-((R)-3-Hydroxy-indan-5-yloxy)-5H-pyrrolo[2,3-b]pyrazine-7-carboxylic acid isopropylamide], the IC50 is reported as 140 nM.

Molecule `CCC(CC)NC(=O)c1c[nH]c2ncc(C3CC3)nc12` [Example I-26, 2-Cyclopropyl-5H-pyrrolo[2,3-b]pyrazine-7-carboxylic acid (1-ethyl-propyl)-amide] has an IC50 of 4.08 nM.

`CC(C)(O)[C@@H](NC(=O)c1c[nH]c2ncc(C3CC3)nc12)C1CC1` [Example I-73, 2-Cyclopropyl-5H-pyrrolo[2,3-b]pyrazine-7-carboxylic acid ((S)-1-cyclopropyl-2-hydroxy-2-methyl-propyl)-amide] was tested, and the IC50 was 92.4 nM.

In the case of `CCc1cccc(-n2cnc(-c3cnc4[nH]cc(C(=O)N[C@@H](C)C(C)(C)C)c4n3)c2)c1` [Example I-151, 2-[1-(3-Ethyl-phenyl)-1H-imidazol-4-yl]-5H-pyrrolo[2,3-b]pyrazine-7-carboxylic acid ((S)-1,2,2-trimethyl-propyl)-amide], the IC50 is reported as 12.4 nM.

Work on `CC(NC(=O)c1ccc(-c2cnc3[nH]cc(C(=O)N[C@@H](C)C(C)(C)C)c3n2)s1)c1cccnc1` (stereo partly drawn) [Example I-171, 2-[5-(1-Pyridin-3-yl-ethylcarbamoyl)-thiophen-2-yl]-5H-pyrrolo[2,3-b]pyrazine-7-carboxylic acid ((S)-1,2,2-trimethyl-propyl)-amide] yielded an IC50 of 0.23 nM.

In the case of `CC[C@@H](CO)NC(=O)c1c[nH]c2ncc(C3CC3)nc12` [Example I-40, 2-Cyclopropyl-5H-pyrrolo[2,3-b]pyrazine-7-carboxylic acid ((S)-1-hydroxymethyl-propyl)-amide], the IC50 is reported as 128 nM.

In the case of `C[C@H](NC(=O)c1c[nH]c2ncc(-c3ccc(C(=O)Nc4ccc5c(c4)CCCC5)s3)nc12)C(C)(C)C` [Example I-200, 2-[5-(5,6,7,8-Tetrahydro-naphthalen-2-ylcarbamoyl)-thiophen-2-yl]-5H-pyrrolo[2,3-b]pyrazine-7-carboxylic acid ((S)-1,2,2-trimethyl-propyl)-amide], the IC50 is reported as 0.73 nM.

Molecule `CC(C)NC(=O)c1c[nH]c2ncc(Oc3cccc4ccccc34)nc12` [Example I-241, 2-(Naphthalen-1-yloxy)-5H-pyrrolo[2,3-b]pyrazine-7-carboxylic acid isopropylamide] has an IC50 of 677 nM.

`C[C@H](NC(=O)c1c[nH]c2ncc(-c3ccc(C(=O)NCc4cccnc4)s3)nc12)C(C)(C)C` [Example I-164, 2-{5-[(Pyridin-3-ylmethyl)-carbamoyl]-thiophen-2-yl}-5H-pyrrolo[2,3-b]pyrazine-7-carboxylic acid ((S)-1,2,2-trimethyl-propyl)-amide] gave an IC50 of 0.32 nM.

Work on `C[C@@H](NC(=O)c1c[nH]c2ncc(-c3nccs3)nc12)C(C)(C)O` [Example I-111, 2-Thiazol-2-yl-5H-pyrrolo[2,3-b]pyrazine-7-carboxylic acid ((R)-2-hydroxy-1,2-dimethyl-propyl)-amide] yielded an IC50 of 276 nM.

For `C[C@H](NC(=O)c1c[nH]c2ncc(C3CC3)nc12)C1(C#N)CCCCC1` [Example I-118, 2-Cyclopropyl-5H-pyrrolo[2,3-b]pyrazine-7-carboxylic acid [(S)-1-(1-cyano-cyclohexyl)-ethyl]-amide], the IC50 was 150 nM.

Work on `COc1cccc(Oc2cnc3[nH]cc(C(=O)NC(C)C)c3n2)c1` [Example I-229, 2-(3-Methoxy-phenoxy)-5H-pyrrolo[2,3-b]pyrazine-7-carboxylic acid isopropylamide] yielded an IC50 of 184 nM.

`C[C@H](NC(=O)c1c[nH]c2ncc(Oc3ccccc3)nc12)C1CCCCC1` [Example I-123, 2-Phenoxy-5H-pyrrolo[2,3-b]pyrazine-7-carboxylic acid ((S)-1-cyclohexyl-ethyl)-amide] was tested, and the IC50 was 1330 nM.

For `CC(C)NC(=O)c1c[nH]c2ncc(Oc3cccc4c3CCCC4)nc12` [Example I-239, 2-(5,6,7,8-Tetrahydro-naphthalen-1-yloxy)-5H-pyrrolo[2,3-b]pyrazine-7-carboxylic acid isopropylamide], the IC50 was 5200 nM.

Work on `CC[C@H](CO)NC(=O)c1c[nH]c2ncc(C3CC3)nc12` [Example I-58, 2-Cyclopropyl-5H-pyrrolo[2,3-b]pyrazine-7-carboxylic acid ((R)-1-hydroxymethyl-propyl)-amide] yielded an IC50 of 37.7 nM.

With `COCC(C)(C)CNC(=O)c1c[nH]c2ncc(C3CC3)nc12` [Example I-59, 2-Cyclopropyl-5H-pyrrolo[2,3-b]pyrazine-7-carboxylic acid (3-methoxy-2,2-dimethyl-propyl)-amide] the IC50 was 58.9 nM.

In the case of `CC(C)NC(=O)c1c[nH]c2ncc(Oc3ccccc3Cl)nc12` [Example I-255, 2-(2-Chloro-phenoxy)-5H-pyrrolo[2,3-b]pyrazine-7-carboxylic acid isopropylamide], the IC50 is reported as 382 nM.

`N#CCCCNC(=O)c1c[nH]c2ncc(C3CC3)nc12` [Example I-33, 2-Cyclopropyl-5H-pyrrolo[2,3-b]pyrazine-7-carboxylic acid (3-cyano-propyl)-amide] was tested, and the IC50 was 493 nM.

Work on `O=C(NC(C1CCCCC1)C1CC1)c1c[nH]c2ncc(C3CC3)nc12` (centres unmarked) [Example I-78, 2-Cyclopropyl-5H-pyrrolo[2,3-b]pyrazine-7-carboxylic acid (cyclohexyl-cyclopropyl-methyl)-amide] yielded an IC50 of 78.6 nM.

With `CCNC(=O)c1c[nH]c2ncc(Oc3cc(OC)cc(OC)c3)nc12` [Example I-263, 2-(3,5-Dimethoxy-phenoxy)-5H-pyrrolo[2,3-b]pyrazine-7-carboxylic acid ethylamide] the IC50 was 2350 nM.

In the case of `C[C@H](NC(=O)c1c[nH]c2ncc(-c3ccc(C(=O)N4CC(C#N)C4)s3)nc12)C(C)(C)C` [Example I-178, 2-[5-(3-Cyano-azetidine-1-carbonyl)-thiophen-2-yl]-5H-pyrrolo[2,3-b]pyrazine-7-carboxylic acid ((S)-1,2,2-trimethyl-propyl)-amide], the IC50 is reported as 0.32 nM.

Molecule `CC(C)(O)[C@@H](NC(=O)c1c[nH]c2ncc(C3CC3)nc12)C1CCCCC1` [Example I-94, 2-Cyclopropyl-5H-pyrrolo[2,3-b]pyrazine-7-carboxylic acid ((S)-1-cyclohexyl-2-hydroxy-2-methyl-propyl)-amide] has an IC50 of 878 nM.

Molecule `CC(C)(C(=O)O)C(NC(=O)c1c[nH]c2ncc(C3CC3)nc12)C1CC1` (centres unmarked) [Example I-92, 3-Cyclopropyl-3-[(2-cyclopropyl-5H-pyrrolo[2,3-b]pyrazine-7-carbonyl)-amino]-2,2-dimethyl-propionic acid] has an IC50 of 95.1 nM.

In the case of `C=Cc1cnc2[nH]cc(C(=O)NCC(C)(C)CO)c2n1` [Example I-36, 2-Vinyl-5H-pyrrolo[2,3-b]pyrazine-7-carboxylic acid (3-hydroxy-2,2-dimethyl-propyl)-amide], the IC50 is reported as 33.6 nM.

In the case of `CC(C)NC(=O)c1c[nH]c2ncc(Oc3ccc4ccn(C)c4c3)nc12` [Example I-276, 2-(1-Methyl-1H-indol-6-yloxy)-5H-pyrrolo[2,3-b]pyrazine-7-carboxylic acid isopropylamide], the IC50 is reported as 574 nM.

`C[C@H](CS(C)(=O)=O)NC(=O)c1ccc(-c2cnc3[nH]cc(C(=O)N[C@@H](C)C(C)(C)C)c3n2)s1` [Example I-211, 2-[5-((R)-2-Methanesulfonyl-1-methyl-ethylcarbamoyl)-thiophen-2-yl]-5H-pyrrolo[2,3-b]pyrazine-7-carboxylic acid ((S)-1,2,2-trimethyl-propyl)-amide] showed an IC50 of 0.22 nM.

Work on `Cc1cc(-c2cnc3[nH]cc(C(=O)N[C@@H](C)C(C)(C)C)c3n2)sc1C(=O)N1CCS(=O)(=O)CC1` [Example I-220, 2-[5-(1,1-Dioxo-1λ^6-thiomorpholine-4-carbonyl)-4-methyl-thiophen-2-yl]-5H-pyrrolo[2,3-b]pyrazine-7-carboxylic acid ((S)-1,2,2-trimethyl-propyl)-amide] yielded an IC50 of 0.23 nM.

`O=C(NC(CO)CO)c1c[nH]c2ncc(C3CC3)nc12` [Example I-51, 2-Cyclopropyl-5H-pyrrolo[2,3-b]pyrazine-7-carboxylic acid (2-hydroxy-1-hydroxymethyl-ethyl)-amide] was tested, and the IC50 was 414 nM.

In the case of `C[C@H](NC(=O)c1c[nH]c2ncc(-c3ccc(C(=O)NCc4cccc(C(F)(F)F)c4)s3)nc12)C(C)(C)C` [Example I-207, 2-[5-(3-Trifluoromethyl-benzylcarbamoyl)-thiophen-2-yl]-5H-pyrrolo[2,3-b]pyrazine-7-carboxylic acid ((S)-1,2,2-trimethyl-propyl)-amide], the IC50 is reported as 0.73 nM.

With `CCNC(=O)c1c[nH]c2ncc(Oc3cccc(Cl)c3)nc12` [Example I-244, 2-(3-Chloro-phenoxy)-5H-pyrrolo[2,3-b]pyrazine-7-carboxylic acid ethylamide] the IC50 was 1070 nM.
